Data on 22 compounds can be found in patent US12545654B2 (STEMSYNERGY THERAPEUTICS, INC., priority 2020, dated 2026).

This experiment has as its system N-myc protein. Briefly: In-cell immunostaining assay for decrease of N-myc protein level in neuroblastoma cells. To be noted: human neuroblastoma cell lines (Kelly, IMR32, SK-N-BE(2)); treated overnight or up to 3 days; N-myc signal normalized over total protein; read-out: Activity (EC50 for decreasing N-myc protein level). Format: cell-based. On the procedure:
Human neuroblastoma cell lines were obtained from either Millipore Sigma, St. Louis, MO (Kelly cells) or American Type Culture Collection, Manassas, VA (IMR32 and SK-N-BE(2) cells). Cells were cultured in RPMI1640 medium (Corning, New York, NY), supplemented with 10% fetal bovine serum, 100 unit/mL penicillin and 100 μg/mL streptomycin (Corning, New York, NY) at 37 degree Celsius with 5% CO2 in air atmosphere. Cells cultured in flat clear bottom, black 96-well plates (Corning, New York, NY) were treated with different concentrations of a compound of the invention, which was dissolved in the culture media (200 μL/well), overnight or up to 3 days. Cells were fixed with 4% paraformaldehyde (in Phosphate-Buffered Saline or PBS, 100 μL/well) for 30 minutes at room temperature. Cells were briefly washed three times with PBS afterwards, and then treated with PBS containing 0.1% Triton X-100 (100 μL/well) for 30 minutes at room temperature. For […], cells were further treated with PBS containing 0.01% IRDye 700DX NHS Ester (LI-COR Biosciences, Lincoln, NE. 100 μL/well) for 30 minutes at room temperature. Cells were again washed three times with PBS, and then treated with a Tris-buffered saline solution with 0.1% Tween 20 (TBST) and 5% non-fat milk (50 μL/well) for 1 hour at room temperature. Cells were then treated with TBST with 5% non-fat milk (50 μL/well) containing a mouse anti N-Myc antibody (Clone B8.4.B, 1:500 dilution, Santa Cruz Biotechnology, Santa Cruz, CA), or a combination of a rabbit anti-Histone H3 (phospho S10) antibody (Clone EPR17246, 1:10000 dilution, abcam, Cambridge, MA) and a mouse anti-Histone H3 antibody (Clone 1G1, 1:250 dilution, Santa Cruz Biotechnology, Santa Cruz, CA) overnight at 4 degree Celsius in the dark. Cells were washed three times with TBST, and then treated with TBST with 5% non-fat milk (50 μL/well) containing an IRDye 800CW donkey anti-mouse IgG antibody (1:1000 dilution, LI-COR Biosciences, Lincoln, NE) for N-myc staining, or IRDye® 800CW donkey anti-rabbit IgG and IRDye 680RD donkey anti-mouse IgG antibodies (1:1000 dilution, LI-COR Biosciences, Lincoln, NE) for Histone H3 (phospho S10) and Histone H3 staining, incubated for 1 hour at room temperature in the dark. Cells were then washed four times with TBST and the plate was scanned using an Odyssey 9120 Imaging System (LI-COR Biosciences, Lincoln, NE). Signals for N-myc, total protein, Histone H3 (phospho S10), and Histone H3 were obtained from the images using the ImageStudio software (Version 4.0.21, LI-COR Biosciences, Lincoln, NE). Normalized signals for N-myc (over total protein), and Histone H3 (phospho S10) (over Histone H3) were plotted in Prism 7 software (GraphPad Software, San Diego, CA). A four-parameter dose-response curve was fitted using a variable slope model and the EC50 was calculated in Prism 7 software (GraphPad Software, San Diego, CA).
In the case of `O=C(Nc1cccc(C(F)(F)F)c1)c1sc(NC(=O)C2(C(=O)Nc3ccc(F)cc3)CC2)nc1-c1ccccc1`, the half-maximal effective concentration (EC50) – broadly, the concentration giving half of the maximal effect – was more than 1000 nM. Consider `O=C(Nc1ccc(Cl)c(Cl)c1)c1sc(NC(=O)C2(C(=O)Nc3ccc(F)cc3)CC2)nc1-c1ccccc1`, for which the EC50 was more than 1000 nM. With `O=C(Nc1ccc(Cl)c(Cl)c1)c1sc(NC(=O)C2(C(=O)Nc3ccc(F)cc3)CC2)nc1C1CC1` the figure was more than 1000 nM.

Regarding `Cc1nc(NC(=O)C2(C(=O)Nc3ccc(F)cc3)CC2)sc1C(=O)Nc1cc(C(F)(F)F)ccc1Cl` [SSTA-0152, N-(5-((2-chloro-5-(trifluoromethyl)phenyl)carbamoyl)-4-methylthiazol-2-yl)-N-(4-fluorophenyl)cyclopropane-1,1-dicarboxamide], the half-maximal effective concentration (EC50) was in the range of 250 to 1000 nM.

As for `Cc1nc(NC(=O)C2(C(=O)Nc3cccc(C(F)(F)F)c3)CC2)sc1C(=O)Nc1cc(C(F)(F)F)ccc1Cl` [SSTA-0168, N-(5-((2-chloro-5-(trifluoromethyl)phenyl)carbamoyl)-4-methylthiazol-2-yl)-N-(3-(trifluoromethyl)phenyl)cyclopropane-1,1-dicarboxamide], the concentration for a half-maximal effect (EC50) is more than 1000 nM. Take `Cc1nc(NC(=O)C2(C(=O)Nc3ccc(Cl)cc3)CC2)sc1C(=O)Nc1cc(C(F)(F)F)ccc1Cl` [SSTA-0169, N-(5-((2-chloro-5-(trifluoromethyl)phenyl)carbamoyl)-4-methylthiazol-2-yl)-N-(4-chlorophenyl)cyclopropane-1,1-dicarboxamide]: the half-maximal effective concentration (EC50) was more than 1000 nM. With `Cc1nc(NC(=O)C2(C(=O)Nc3ccccc3Cl)CC2)sc1C(=O)Nc1cc(C(F)(F)F)ccc1Cl` [SSTA-0170, N-(5-((2-chloro-5-(trifluoromethyl)phenyl)carbamoyl)-4-methylthiazol-2-yl)-N-(2-chlorophenyl)cyclopropane-1,1-dicarboxamide] the figure was more than 1000 nM; with `Cc1nc(NC(=O)C2(C(=O)Nc3cccc(F)c3)CC2)sc1C(=O)Nc1cc(C(F)(F)F)ccc1Cl` [SSTA-0171, N-(5-((2-chloro-5-(trifluoromethyl)phenyl)carbamoyl)-4-methylthiazol-2-yl)-N-(3-fluorophenyl)cyclopropane-1,1-dicarboxamide], more than 1000 nM; with `Cc1nc(NC(=O)C2(C(=O)Nc3ccc(F)cc3)CC2)oc1C(=O)Nc1cccc(C(F)(F)F)c1` [SSTA-0190, N-(4-fluorophenyl)-N-(4-methyl-5-((3-(trifluoromethyl)phenyl)carbamoyl)oxazol-2-yl)cyclopropane-1,1-dicarboxamide], more than 1000 nM. Next, `Cc1nc(NC(=O)C2(C(=O)Nc3ccc(F)cc3)CC2)oc1C(=O)Nc1ccc(Cl)c(Cl)c1` [SSTA-0191, N-(5-((3,4-dichlorophenyl)carbamoyl)-4-methyloxazol-2-yl)-N-(4-fluorophenyl)cyclopropane-1,1-dicarboxamide]: more than 1000 nM; `O=C(Nc1ccc(Cl)c(Cl)c1)c1sc(NC(=O)C2(C(=O)Nc3ccc(F)cc3)CC2)nc1C(F)(F)F` [SSTA-0194, N-(5-((3,4-dichlorophenyl)carbamoyl)-4-(trifluoromethyl)thiazol-2-yl)-N-(4-fluorophenyl)cyclopropane-1,1-dicarboxamide]: more than 1000 nM. Next, `O=C(Nc1cc(C(F)(F)F)ccc1Cl)c1sc(NC(=O)C2(C(=O)Nc3ccc(F)cc3)CC2)nc1C(F)(F)F` [SSTA-0217, N-(5-((2-chloro-5-(trifluoromethyl)phenyl)carbamoyl)-4-(trifluoromethyl)thiazol-2-yl)-N-(4-fluorophenyl)cyclopropane-1,1-dicarboxamide]: 250 to 1000 nM. Consider `O=C(Nc1cc(C(F)(F)F)ccc1Cl)c1sc(NC(=O)C2(C(=O)Nc3ccc(F)cc3)CC2)nc1C1CC1` [SSTA-0218, N-(5-((2-chloro-5-(trifluoromethyl)phenyl)carbamoyl)-4-cyclopropylthiazol-2-yl)-N-(4-fluorophenyl)cyclopropane-1,1-dicarboxamide], for which the half-maximal effective concentration (EC50) was in the range of 250 to 1000 nM. With `Cc1nc(-c2ccc(NC(=O)C3(C(=O)Nc4nc(C)c(C(=O)Nc5cc(C(F)(F)F)ccc5Cl)s4)CC3)cc2)no1` [SSTA-0229, N-(5-((2-chloro-5-(trifluoromethyl)phenyl)carbamoyl)-4-methylthiazol-2-yl)-N-(4-(5-methyl-1,2,4-oxadiazol-3-yl)phenyl)cyclopropane-1,1-dicarboxamide] the figure was more than 1000 nM; with `COc1cc(NC(=O)C2(C(=O)Nc3nc(C)c(C(=O)Nc4cc(C(F)(F)F)ccc4Cl)s3)CC2)cc(C(F)(F)F)c1` [SSTA-0234, N-(5-((2-chloro-5-(trifluoromethyl)phenyl)carbamoyl)-4-methylthiazol-2-yl)-N-(3-methoxy-5-(trifluoromethyl)phenyl)cyclopropane-1,1-dicarboxamide], 250 to 1000 nM. With `Cc1nc(NC(=O)C2(C(=O)Nc3ccc(Cl)c(F)c3)CC2)sc1C(=O)Nc1cc(C(F)(F)F)ccc1Cl` [SSTA-0236, N-(4-chloro-3-fluorophenyl)-N-(5-((2-chloro-5-(trifluoromethyl)phenyl)carbamoyl)-4-methylthiazol-2-yl)cyclopropane-1,1-dicarboxamide] the figure was 250 to 1000 nM; with `Cc1nc(NC(=O)C2(C(=O)Nc3cc(F)cc(Cl)c3)CC2)sc1C(=O)Nc1cc(C(F)(F)F)ccc1Cl` [SSTA-0237, N-(5-((2-chloro-5-(trifluoromethyl)phenyl)carbamoyl)-4-methylthiazol-2-yl)-N-(3-chloro-5-fluorophenyl)cyclopropane-1,1-dicarboxamide], 250 to 1000 nM. Next, `Cc1nc(NC(=O)C2(C(=O)Nc3ccc(F)c(F)c3)CC2)sc1C(=O)Nc1cc(C(F)(F)F)ccc1Cl` [SSTA-0238, N-(5-((2-chloro-5-(trifluoromethyl)phenyl)carbamoyl)-4-methylthiazol-2-yl)-N-(3,4-difluorophenyl)cyclopropane-1,1-dicarboxamide]: 250 to 1000 nM; `Cc1nc(NC(=O)C2(C(=O)Nc3cc(F)ccc3F)CC2)sc1C(=O)Nc1cc(C(F)(F)F)ccc1Cl` [SSTA-0239, N-(5-((2-chloro-5-(trifluoromethyl)phenyl)carbamoyl)-4-methylthiazol-2-yl)-N-(2,5-difluorophenyl)cyclopropane-1,1-dicarboxamide]: more than 1000 nM; `COc1c(F)cccc1NC(=O)C1(C(=O)Nc2nc(C)c(C(=O)Nc3cc(C(F)(F)F)ccc3Cl)s2)CC1` [SSTA-0240, N-(5-((2-chloro-5-(trifluoromethyl)phenyl)carbamoyl)-4-methylthiazol-2-yl)-N-(3-fluoro-2-methoxyphenyl)cyclopropane-1,1-dicarboxamide]: more than 1000 nM. As for `COc1cc(F)cc(NC(=O)C2(C(=O)Nc3nc(C)c(C(=O)Nc4cc(C(F)(F)F)ccc4Cl)s3)CC2)c1` [SSTA-0241, N-(5-((2-chloro-5-(trifluoromethyl)phenyl)carbamoyl)-4-methylthiazol-2-yl)-N-(3-fluoro-5-methoxyphenyl)cyclopropane-1,1-dicarboxamide], the EC50 was 250 to 1000 nM. With `Cc1nc(NC(=O)C2(C(=O)Nc3ccc(F)cc3OC(C)C)CC2)sc1C(=O)Nc1cc(C(F)(F)F)ccc1Cl` [SSTA-0242, N-(5-((2-chloro-5-(trifluoromethyl)phenyl)carbamoyl)-4-methylthiazol-2-yl)-N-(4-fluoro-2-isopropoxyphenyl)cyclopropane-1,1-dicarboxamide] the figure was more than 1000 nM.
